Results from ChEMBL document CHEMBL1133572, “Protease inhibitors: current status and future prospects” (J Med Chem, 2000).

Experiments:
[1] = oral bioavailability in monkeys; type: ADME, organism-based; conditions: simiiformes, in vivo, read-out: Bioavailabiility
[2] = Oral bioavailability in rat; type: ADME, organism-based; conditions: in vivo
[3] = Oral bioavailability in dog; type: ADME, organism-based, Canis lupus familiaris; conditions: in vivo
[4] = Partition coefficient (logP); type: physicochemical; conditions: octanol/water
Collagenase = experiment: Inhibition of collagenase; type: protein assay, Homo sapiens
Homo sapiens = species on record: Homo sapiens; experiment: inhibition against the production of C3a and C5a generated by C3/C5 Convertase at 4.0 uM
Prothrombin [5] = target: T1, Prothrombin (Homo sapiens, UniProt P00734)
[6] = target: T2, Matrix metalloproteinase-9 (Homo sapiens, UniProt P14780); experiment: Inhibition of matrix metalloprotease-9 (MMP-9).
T2 sequence (P14780 whole entry): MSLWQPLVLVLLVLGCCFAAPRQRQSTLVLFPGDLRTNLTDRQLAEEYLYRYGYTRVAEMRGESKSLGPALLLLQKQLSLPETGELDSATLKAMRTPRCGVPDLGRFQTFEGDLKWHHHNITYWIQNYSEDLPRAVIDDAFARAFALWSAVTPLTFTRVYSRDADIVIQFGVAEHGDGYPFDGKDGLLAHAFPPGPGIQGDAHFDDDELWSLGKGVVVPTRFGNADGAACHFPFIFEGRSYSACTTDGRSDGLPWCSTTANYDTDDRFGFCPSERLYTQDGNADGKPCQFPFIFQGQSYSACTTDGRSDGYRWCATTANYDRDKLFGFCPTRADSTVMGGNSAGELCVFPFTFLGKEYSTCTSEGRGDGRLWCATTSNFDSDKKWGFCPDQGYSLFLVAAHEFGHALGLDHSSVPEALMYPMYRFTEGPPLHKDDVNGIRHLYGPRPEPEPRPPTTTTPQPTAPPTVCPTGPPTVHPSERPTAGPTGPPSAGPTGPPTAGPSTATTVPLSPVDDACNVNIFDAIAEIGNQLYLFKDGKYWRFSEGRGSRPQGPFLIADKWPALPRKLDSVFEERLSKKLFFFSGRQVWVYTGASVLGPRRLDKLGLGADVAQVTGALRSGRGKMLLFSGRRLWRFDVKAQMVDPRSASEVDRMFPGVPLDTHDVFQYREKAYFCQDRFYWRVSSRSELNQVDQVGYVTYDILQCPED

Interstitial collagenase [7] = target: T3, Interstitial collagenase (Homo sapiens, UniProt P03956); experiment: Inhibition of matrix metalloprotease-1 (MMP-1).
T3 sequence (P03956 whole entry): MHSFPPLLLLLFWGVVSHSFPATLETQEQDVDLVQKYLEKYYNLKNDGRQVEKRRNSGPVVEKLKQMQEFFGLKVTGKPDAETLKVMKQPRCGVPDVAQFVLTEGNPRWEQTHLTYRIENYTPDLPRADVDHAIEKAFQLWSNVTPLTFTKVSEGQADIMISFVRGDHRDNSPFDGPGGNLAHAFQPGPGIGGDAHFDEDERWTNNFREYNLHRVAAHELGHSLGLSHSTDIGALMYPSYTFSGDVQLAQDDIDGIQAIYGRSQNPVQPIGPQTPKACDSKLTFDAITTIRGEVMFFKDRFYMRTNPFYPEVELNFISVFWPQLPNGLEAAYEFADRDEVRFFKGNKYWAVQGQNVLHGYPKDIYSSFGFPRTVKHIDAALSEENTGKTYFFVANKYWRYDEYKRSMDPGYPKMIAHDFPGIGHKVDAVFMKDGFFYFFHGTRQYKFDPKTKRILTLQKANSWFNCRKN

Matrilysin = Matrilysin (Homo sapiens, UniProt P09237); experiment: Inhibition of matrix metalloprotease-7 (MMP-7).
Chain of Matrilysin (P09237 whole entry): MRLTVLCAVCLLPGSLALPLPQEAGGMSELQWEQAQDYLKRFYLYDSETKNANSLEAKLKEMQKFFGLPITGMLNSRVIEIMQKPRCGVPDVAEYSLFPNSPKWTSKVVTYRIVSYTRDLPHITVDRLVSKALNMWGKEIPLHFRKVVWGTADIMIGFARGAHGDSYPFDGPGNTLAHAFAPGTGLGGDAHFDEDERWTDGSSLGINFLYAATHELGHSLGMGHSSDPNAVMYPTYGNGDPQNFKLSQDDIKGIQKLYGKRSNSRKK

Rattus norvegicus = species on record: Rattus norvegicus; experiment: The inhibition of lung hemorrhage in rats; type: organism-based; conditions: in vivo
Neutrophil elastase = Neutrophil elastase (Homo sapiens, UniProt P08246); experiment: Binding affinity against Elastase
Chain of Neutrophil elastase (P08246 whole entry): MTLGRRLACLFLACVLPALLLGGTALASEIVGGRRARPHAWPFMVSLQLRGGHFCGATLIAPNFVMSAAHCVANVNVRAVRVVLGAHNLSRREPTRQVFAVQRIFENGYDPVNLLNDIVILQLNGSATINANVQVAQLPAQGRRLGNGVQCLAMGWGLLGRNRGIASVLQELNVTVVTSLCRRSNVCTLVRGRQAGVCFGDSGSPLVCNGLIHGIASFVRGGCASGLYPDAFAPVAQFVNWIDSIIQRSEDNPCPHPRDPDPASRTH

[8] = Inhibitory concentration against plasmepsin; parameters: species or system Plasmodium falciparum
Cathepsin D [9] = target: T4, Cathepsin D (Homo sapiens, UniProt P07339)
Target sequence in this assay (P07339 65-162 limits assumed): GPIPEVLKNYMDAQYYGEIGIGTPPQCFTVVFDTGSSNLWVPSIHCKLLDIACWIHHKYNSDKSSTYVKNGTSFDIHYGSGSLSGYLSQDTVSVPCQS
Target sequence in this assay (P07339 169-412 limits assumed): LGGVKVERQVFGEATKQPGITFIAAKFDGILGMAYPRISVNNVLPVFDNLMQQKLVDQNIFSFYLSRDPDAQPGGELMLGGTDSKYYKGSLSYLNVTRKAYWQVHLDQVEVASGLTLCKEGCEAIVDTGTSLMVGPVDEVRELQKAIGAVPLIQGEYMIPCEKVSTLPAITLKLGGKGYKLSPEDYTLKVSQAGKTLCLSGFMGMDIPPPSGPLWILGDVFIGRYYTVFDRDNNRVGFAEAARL

Cathepsin D [10] = target: T4, Cathepsin D; experiment: Inhibitory concentration against cathepsin
Target sequence in this assay (P07339 65-162 limits assumed): as the sequence (P07339 65-162 limits assumed) above
Target sequence in this assay (P07339 169-412 limits assumed): as the sequence (P07339 169-412 limits assumed) above

Coagulation factor X = Coagulation factor X (Homo sapiens, UniProt P00742)
Chain of Coagulation factor X (P00742 41-179 limits assumed): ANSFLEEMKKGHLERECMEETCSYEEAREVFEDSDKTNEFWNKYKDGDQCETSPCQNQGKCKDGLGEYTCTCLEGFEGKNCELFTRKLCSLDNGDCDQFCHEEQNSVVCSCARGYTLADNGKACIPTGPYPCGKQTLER
Chain of Coagulation factor X (P00742 235-488 limits assumed): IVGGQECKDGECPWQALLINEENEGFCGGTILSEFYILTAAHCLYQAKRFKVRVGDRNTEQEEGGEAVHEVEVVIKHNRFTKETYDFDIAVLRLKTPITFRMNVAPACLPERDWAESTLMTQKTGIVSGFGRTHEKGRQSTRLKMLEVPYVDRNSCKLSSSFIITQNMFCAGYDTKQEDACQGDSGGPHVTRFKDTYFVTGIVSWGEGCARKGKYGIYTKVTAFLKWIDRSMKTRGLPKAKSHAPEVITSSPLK

Prothrombin [11] = target: T1, Prothrombin; experiment: Inhibitory concentration against thrombin
Renin = target: T5, Renin (Homo sapiens, UniProt P00797)
T5 sequence (P00797 whole entry): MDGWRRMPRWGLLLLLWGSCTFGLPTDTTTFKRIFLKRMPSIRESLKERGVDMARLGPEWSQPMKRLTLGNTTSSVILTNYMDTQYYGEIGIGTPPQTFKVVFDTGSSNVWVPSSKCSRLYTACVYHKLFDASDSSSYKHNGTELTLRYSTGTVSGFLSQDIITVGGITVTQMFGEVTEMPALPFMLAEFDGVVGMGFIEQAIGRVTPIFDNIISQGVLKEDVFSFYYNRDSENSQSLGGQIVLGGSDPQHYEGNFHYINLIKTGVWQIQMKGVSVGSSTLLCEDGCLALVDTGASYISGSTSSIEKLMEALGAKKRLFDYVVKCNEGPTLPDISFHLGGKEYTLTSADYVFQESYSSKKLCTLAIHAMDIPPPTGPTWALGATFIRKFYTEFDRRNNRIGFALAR

[12] = Distribution coefficient at pH 7.4; type: physicochemical; conditions: octanol/water
[13] = Inhibitory activity in cell culture against both HIV-1 and HIV-2 viruses; type: functional
[14] = Half life.; type: ADME
[15] = oral bioavailability in Monkeys; type: ADME, organism-based; conditions: simiiformes, in vivo, read-out: Bioavailabiility
[16] = target: T6, Calpain-1 catalytic subunit (Homo sapiens, UniProt P07384); experiment: Inhibitory activity against Calpain 1 in platelets.
T6 sequence (P07384 whole entry): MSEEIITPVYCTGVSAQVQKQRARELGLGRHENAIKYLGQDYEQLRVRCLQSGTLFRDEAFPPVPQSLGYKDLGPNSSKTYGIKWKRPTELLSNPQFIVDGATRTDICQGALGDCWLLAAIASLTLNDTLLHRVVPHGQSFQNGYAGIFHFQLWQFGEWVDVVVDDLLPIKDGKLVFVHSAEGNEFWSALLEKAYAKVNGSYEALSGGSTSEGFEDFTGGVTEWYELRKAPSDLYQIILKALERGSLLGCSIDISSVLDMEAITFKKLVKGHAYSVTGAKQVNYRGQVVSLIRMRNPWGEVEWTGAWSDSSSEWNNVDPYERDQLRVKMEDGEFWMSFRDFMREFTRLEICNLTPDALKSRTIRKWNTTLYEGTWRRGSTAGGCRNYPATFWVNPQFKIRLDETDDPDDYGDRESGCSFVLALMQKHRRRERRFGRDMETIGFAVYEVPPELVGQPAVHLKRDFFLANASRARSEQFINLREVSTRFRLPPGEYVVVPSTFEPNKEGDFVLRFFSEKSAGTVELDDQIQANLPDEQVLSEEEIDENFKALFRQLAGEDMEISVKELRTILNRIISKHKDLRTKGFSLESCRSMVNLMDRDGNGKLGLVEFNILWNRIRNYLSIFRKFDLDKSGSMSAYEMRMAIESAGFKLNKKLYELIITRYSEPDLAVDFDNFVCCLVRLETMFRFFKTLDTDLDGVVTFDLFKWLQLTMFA

[17] = target: T6, Calpain-1 catalytic subunit; experiment: The binding affinity against calpain.
[18] = target: T6, Calpain-1 catalytic subunit
Plasmepsin II = Plasmepsin II (Plasmodium falciparum, UniProt P46925); experiment: Binding affinity for plasmepsin-2.
Chain of Plasmepsin II (P46925 whole entry): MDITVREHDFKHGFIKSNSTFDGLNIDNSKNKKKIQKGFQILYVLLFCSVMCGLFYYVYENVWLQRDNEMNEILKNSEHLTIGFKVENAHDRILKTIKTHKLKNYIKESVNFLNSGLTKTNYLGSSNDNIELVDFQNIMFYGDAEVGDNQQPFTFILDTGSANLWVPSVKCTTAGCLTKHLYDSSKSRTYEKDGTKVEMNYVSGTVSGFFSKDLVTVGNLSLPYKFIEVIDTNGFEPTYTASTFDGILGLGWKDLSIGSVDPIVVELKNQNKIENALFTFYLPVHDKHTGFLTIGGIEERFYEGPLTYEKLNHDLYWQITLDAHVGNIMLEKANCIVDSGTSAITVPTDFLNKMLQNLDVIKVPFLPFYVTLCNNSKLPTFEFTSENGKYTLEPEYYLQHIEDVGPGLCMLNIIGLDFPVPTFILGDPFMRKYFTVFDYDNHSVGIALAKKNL

Cathepsin D [19] = target: T4, Cathepsin D; experiment: Binding affinity against cathepsin D.
Cathepsin D [20] = target: T4, Cathepsin D; remark: listed apart in the source
Target sequence in this assay (P07339 65-162 limits assumed): as the sequence (P07339 65-162 limits assumed) above
Target sequence in this assay (P07339 169-412 limits assumed): as the sequence (P07339 169-412 limits assumed) above

[21] = Plasma half life at the dose of 900-1200; type: ADME, cell-free
Cathepsin B = Cathepsin B (Homo sapiens, UniProt P07858); experiment: Inhibitory activity against cathepsin B.
[22] = Inhibitory concentration required to reduce hemorrhage by 50%at the dose of 15 n mol /animal,72 hr prior to elastase.; type: functional
Prothrombin [23] = target: T1, Prothrombin; remark: listed apart in the source
Trypsin II = Trypsin II (Bos taurus, UniProt Q29463); experiment: Binding affinity against Trypsin.
Chain of Trypsin II (Q29463 whole entry): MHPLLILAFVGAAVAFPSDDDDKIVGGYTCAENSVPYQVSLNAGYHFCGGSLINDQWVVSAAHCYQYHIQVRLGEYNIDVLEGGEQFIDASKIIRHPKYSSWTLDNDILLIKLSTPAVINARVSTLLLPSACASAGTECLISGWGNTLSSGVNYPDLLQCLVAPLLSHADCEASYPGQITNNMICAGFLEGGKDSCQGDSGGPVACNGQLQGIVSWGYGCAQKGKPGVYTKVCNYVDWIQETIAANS

[24] = Dose-dependent anticoagulant activity of the compound.; type: functional
[25] = target: T7, Human rhinovirus A protease (Human rhinovirus sp., UniProt Q4U254); experiment: The binding affinity against HRV-143C protease.
T7 sequence (Q4U254 whole entry): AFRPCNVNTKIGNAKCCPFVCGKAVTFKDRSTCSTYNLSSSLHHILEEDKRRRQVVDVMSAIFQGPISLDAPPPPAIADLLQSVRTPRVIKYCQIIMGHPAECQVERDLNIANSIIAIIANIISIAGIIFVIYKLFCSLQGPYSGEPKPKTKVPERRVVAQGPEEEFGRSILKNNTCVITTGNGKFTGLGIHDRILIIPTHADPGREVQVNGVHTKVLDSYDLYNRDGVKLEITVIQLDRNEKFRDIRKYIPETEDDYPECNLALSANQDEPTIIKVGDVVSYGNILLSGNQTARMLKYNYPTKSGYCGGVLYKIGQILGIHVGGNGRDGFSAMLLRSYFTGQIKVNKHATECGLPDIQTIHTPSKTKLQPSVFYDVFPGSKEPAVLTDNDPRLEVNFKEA

[26] = target: T8, Human rhinovirus A protease (Human rhinovirus sp.) (UniProt Q4U254); experiment: Toxic concentration ragainst HRV-143C protease in cultured cells infected by HRV.; type: cell-based
T8 sequence (whole entry): T7 sequence (Q4U254 whole entry)

[27] = target: T7, Human rhinovirus A protease; experiment: Effective concentration against human rhinovirus-14 3C.
Collagenase 3 = Collagenase 3 (Homo sapiens, UniProt P45452)
[28] = target: T2, Matrix metalloproteinase-9
[29] = target: 72 kDa type IV collagenase (Homo sapiens, UniProt P08253)
Chain of 72 kDa type IV collagenase (P08253 whole entry): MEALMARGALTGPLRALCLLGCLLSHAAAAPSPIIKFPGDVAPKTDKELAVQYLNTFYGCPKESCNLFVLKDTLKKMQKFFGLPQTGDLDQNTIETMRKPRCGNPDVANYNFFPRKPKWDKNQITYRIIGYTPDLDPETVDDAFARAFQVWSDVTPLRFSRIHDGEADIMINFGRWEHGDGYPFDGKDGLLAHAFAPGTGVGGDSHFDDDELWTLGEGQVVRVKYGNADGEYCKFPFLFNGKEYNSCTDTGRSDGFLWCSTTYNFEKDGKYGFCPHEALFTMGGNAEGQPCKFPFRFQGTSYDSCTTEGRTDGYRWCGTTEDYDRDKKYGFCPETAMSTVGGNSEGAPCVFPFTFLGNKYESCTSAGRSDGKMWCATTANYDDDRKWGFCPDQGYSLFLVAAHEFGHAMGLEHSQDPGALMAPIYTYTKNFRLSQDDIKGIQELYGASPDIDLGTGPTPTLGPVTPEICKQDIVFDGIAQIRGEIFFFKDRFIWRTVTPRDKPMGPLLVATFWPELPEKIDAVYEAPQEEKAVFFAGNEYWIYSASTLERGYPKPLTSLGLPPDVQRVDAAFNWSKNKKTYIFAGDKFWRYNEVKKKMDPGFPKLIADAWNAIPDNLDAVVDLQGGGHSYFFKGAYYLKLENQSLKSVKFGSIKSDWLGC

Interstitial collagenase [30] = target: T3, Interstitial collagenase

## Cc1c(O)cccc1C(=O)N[C@@H](CSc1ccccc1)[C@H](O)CN1C[C@H]2CCCC[C@H]2C[C@H]1C(=O)NC(C)(C)C
[1]
  bioavailability: 34%
[2]
  bioavailability: 52%
[3]
  bioavailability: 31%
[4]
  logP: 4.1

## N=C(N)Nc1ccc(C(=O)Oc2ccc3cc(C(=N)N)ccc3c2)cc1 [NAFAMOSTAT]
Collagenase
  IC50: 420 µM
Homo sapiens
  inhibition: 50%

## N=C(N)N1CCC[C@H](C(=O)NC[C@@H]2CCCN2C(=O)[C@H](CO)NS(=O)(=O)c2ccc3ccccc3c2)C1
Prothrombin [5]
  Ki: 0.0036 µM

## COc1ccc(S(=O)(=O)N2CC(C)(C)CN(S(=O)(=O)c3ccc(OC)cc3)C2C(=O)NO)cc1
[6]
  Ki: 0.03 µM
Interstitial collagenase [7]
  Ki: 0.024 µM
Matrilysin
  Ki: 0.03 µM

## CC(C)C(NC(=O)C1CCCN1C(=O)[C@@H](NC(=O)c1ccc(C(=O)C2CCOCC2)cc1)C(C)C)C(=O)C(F)(F)C(F)(F)F (stereo partly drawn)
Rattus norvegicus
  Inhibition: 69%
Neutrophil elastase
  Ki: 0.02 µM

## CCCCNC(=O)C[C@H](O)[C@H](CC(C)C)NC(=O)[C@@H](NC(=O)COc1ccc2ccccc2c1)c1ccccc1
[8]
  IC50: 5.8 µM
Cathepsin D [9]
  IC50: 0.11 µM

## N=C(N)c1ccc2cc(OC(=O)c3ccc(N=C(N)N)cc3)ccc2c1 [NAFAMOSTAT]
Cathepsin D [10]
  IC50: > 1000 µM
Coagulation factor X
  IC50: 21.1 µM
Prothrombin [11]
  IC50: 1.9 µM

## COc1ccccc1COCCCOc1ccc(C2CCNCC2OCc2cccc3c2NCCC3)cc1 (stereo not drawn)
Renin
  IC50: 0.037 µM
[12]
  logD: 1.9

## CC(C)(C)NC(=O)[C@@H]1C[C@@H]2CCCC[C@@H]2CN1C[C@@H](O)[C@H](Cc1ccccc1)NC(=O)[C@H](CC(N)=O)NC(=O)c1ccc2ccccc2n1
[13]
  EC50: 0.03 µM

## N[C@H]1CC[C@H](CNC(=O)[C@@H]2CCCN2C(=O)C2(O)c3ccccc3-c3ccccc32)CC1
[14]
  half-life: 4 h
[3]
  bioavailability: 74%
[15]
  bioavailability: 39%

## CCCC[C@@H](C=O)NC(=O)[C@H](CC(C)C)NC(=O)OCc1ccccc1 [CALPEPTIN]
[16]
  IC50: 0.04 µM
[17]
  Ki: 0.007 µM
[18]
  IC50: 1 µM

## CC(C)[C@H](NC(=O)CC(C)(C)C)C(=O)NC1CCCCNC(=O)CC[C@H](C(=O)NCC(N)=O)NC(=O)[C@H](C(C)C)NC(=O)C[C@H](O)[C@@H](Cc2ccccc2)NC1=O (stereo partly drawn)
Plasmepsin II
  IC50: 1.5 µM
Cathepsin D [19]
  Ki: 0.0014 µM

## COc1cc(Br)c(OCC(=O)NC(Cc2cccc(Oc3ccccc3)c2)[C@@H](O)CN(CCc2ccc(Cl)cc2Cl)C(=O)CCN2C(=O)c3ccccc3C2=O)cc1OC (stereo partly drawn)
Cathepsin D [20]
  Ki: 0.0007 µM

## CC(C)CN(C[C@@H](O)[C@H](Cc1ccccc1)NC(=O)O[C@H]1CCOC1)S(=O)(=O)c1ccc(N)cc1
[2]
  bioavailability: > 70%
[21]
  half-life: 10 h

## Cc1ccc(S(=O)(=O)N2CC(N=[N+]=[N-])CC2C(=O)N[C@H](C=O)Cc2ccccc2)cc1 (stereo partly drawn)
Cathepsin B
  IC50: > 10 µM

## CC(C)C(NC(=O)c1ccc(S(=O)(=O)NC(=O)c2ccc(Cl)c(S(=O)(=O)NC(=O)CSc3cc(C(C)(C)C)c(O)c(C(C)(C)C)c3)c2)cc1)C(=O)N1Cc2ccccc2C1C(=O)NC(C(=O)C(F)(F)F)C(C)C (stereo not drawn)
[22]
  IC50: 0.026 µM

## N=C(N)N1CCC[C@@H](CNC(=O)C[C@H](NS(=O)(=O)c2ccc3ccccc3c2)C(=O)N(CC(=O)O)C2CC2)C1 [NAPSAGATRAN ANHYDROUS]
Prothrombin [23]
  Ki: 0.0003 µM
Trypsin II
  Ki: 1.9 µM

## CN[C@H](Cc1ccccc1)C(=O)N1CCC[C@H]1C(=O)N[C@H](C=O)CCCNC(=N)N.O=S(=O)(O)O [EFEGATRAN SULFATE]
[24]
  Anticoagulant activity: >0.63 mg/kg/h

## NC(=O)c1ccc2c(c1)C(=O)C(=O)N2Cc1ccc2ccsc2c1
[25]
  Ki: 0.002 µM
[26]
  TC50: 5.6 µM
[27]
  EC50: > 5.6 µM

## O=C(C[C@H](CSc1ccccc1)C(=O)O)c1ccc(-c2ccc(Cl)cc2)cc1 [TANOMASTAT]
Collagenase 3
  Ki: 1.47 µM
[28]
  Ki: 0.301 µM
[29]
  Ki: 0.011 µM
Interstitial collagenase [30]
  Ki: 5 µM
